# Assay results taken from US20260306525A1, “COMBINATION THERAPY GLUCOCORTICOIDS AND GINSENOSIDE” (FYTAGORAS B.V., priority 2023, published 2026).
# How the values were obtained:
# [1] = test system: macrophages; assay: zebrafish tail fin wounding assay, macrophage migration to wounded site; type: in vivo, zebrafish (Danio rerio); conditions: Example 3, ginsenoside Re
# Description: (§1) Zebrafish (Danio rerio) were maintained and handled according to the guidelines from the Zebrafish Model Organism Database (http://zfin.org) and in compliance with the directives of the local animal welfare committee of Leiden University. Zebrafish were exposed to a 14 h light and 10 h dark cycle to maintain circadian rhythmicity. Fertilization was performed by natural spawning at the beginning of the light period. […] The following zebrafish lines were used in this study: the double transgenic line Tg(mpx:GFP^i114/mpeg1:mCherry^umsF001), in which neutrophils and macrophages are fluorescently labeled (green and red, respectively), and the Tg(9xGCRE-HSV.UI23:EGFP)^ia20 reporter line, in which the gene encoding enhanced green fluorescent protein (EGFP) is driven by a GRE-containing promoter.
# (§2) For the tail fin wounding experiments, 20 larvae at 2 or 3 days post-fertilization (dpf) were utilized for each experimental group. For wounding, larvae were anesthetized in egg water containing 0.02% buffered aminobenzoic acid ethyl ester (tricaine; Sigma-Aldrich). Larvae were placed on Petri dishes coated with 2% agarose under a Leica M165C stereomicroscope (Leica Microsystems, Wetzlar, Germany), and the tails were partly amputated using a 1-mm sapphire blade (World Precision Instruments, Sarasota, FL, USA). For quantification of leukocyte migration, larvae were fixed overnight in 4% paraformaldehyde (PFA) at 4° C. The next day, fixed larvae were washed with Phosphate Buffered Saline (PBS) containing 0.1% Tween 20, and stored at 4° C. until imaging.
# (§3) The macrophages were detected based on their red (mCherry) fluorescence, and neutrophils based on their green (EGFP) fluorescence. To quantify the number of macrophages and neutrophils recruited to the wounded area, the cells in a defined area of the tail were determined by blinded manual counting.
# (§4) Zebrafish (Danio rerio) were maintained and handled according to the guidelines from the Zebrafish Model Organism Database (http://zfin.org) and in compliance with the directives of the local animal welfare committee of Leiden University. Zebrafish were exposed to a 14 h light and 10 h dark cycle to maintain circadian rhythmicity. Fertilization was performed by natural spawning at the beginning of the light period. […] The following zebrafish lines were used in this study: AB/TL wild type, the transgenic lines Tg(mpx:GFP^i114/mpeg1:mCherry^umsF001)[14, 15], and Tg(9xGCRE-HSV.UI23:EGFPia^20)[16], and the mutant lines grs357[20].
# (§5) For the tail fin wounding experiments, 2- or 3-days post-fertilization (dpf) larvae were anesthetized in egg water containing 0.02% buffered aminobenzoic acid ethyl ester (tricaine; Sigma-Aldrich). Larvae were placed in Petri dishes coated with 2% agarose under a Leica M165C stereomicroscope (Leica Microsystems, Wetzlar, Germany), and the tails were partly amputated using a 1-mm sapphire blade (World Precision Instruments, Sarasota, FL, USA).
# (§6) In experiments in which the leukocyte migration was used as a readout, larvae were subjected to treatment with chemicals as indicated, starting at 2 h before the amputation (pretreatment), and treatment was continued for 4 h after the tail fin amputation (20 larvae per group, unless indicated otherwise). In some experiments, a 24 h treatment with MZ31 (10 μM) was started at 2 dpf, and these treatments were continued during the pretreatment and treatment with the other chemicals. At 4 h after amputation, the larvae were fixed in 4% paraformaldehyde (PFA) overnight at 4° C. The next day, fixed larvae were washed with Phosphate Buffered Saline (PBS) containing 0.1% Tween 20 and stored at 4° C. until imaging. […] The macrophages were detected based on red (mCherry) fluorescence and neutrophils on their green (EGFP) fluorescence. To quantify the number of macrophages and neutrophils recruited to the wounded area, the cells in a defined area of the tail were determined by blinded manual counting. […]
# [2] = test system: zebrafish larvae; assay: whole-body cortisol measurement of zebrafish larvae (ELISA); conditions: Example 3, ginsenoside Re
# [3] = micelle formation from dried film dissolved in H2O; appearance of solution; type: physicochemical
# Description: Dried leaves of the plant Panax ginseng (8 gram) were boiled in water (350 mL), filtrated and loaded on a 20 mL Bed Volume (BV) column filled with macroporous resin (type D101). After extensively washing with water (15 BV's) the ginsenosides were eluted with 60% EtOH. The ginsenoside solution was decolorized by passing through a 20 mL BV column filled with type D941 macroporous resin. Subsequently, the solvents were slowly evaporated, after at 80° C. under reduced pressure (375 hPa) using a glass vials and a evaporator (P12-Multivapor, Buchi). After evaporation of both the ethanol and the water, a transparent film was formed on the wall of the glass vial.
# In parallel 100 mg pure Re was solved in 10 mL of ethanol. […] The ethanol was slowly removed at 80° C. under low pressure (375 hPa) using a glass vials and a evaporator (P12-Multivapor). Again a clear film was formed on the wall of the glass tubes.
# Micelle formation of ginsenoside extract obtained from dried leaves as described above was repeated in the presence of 0.6 mg of dexamethasone. Dexamethasone was first dissolved in ethanol in a concentration of 10 mg/mL and 0.6 mg of dexamethasone was added to the ethanolic ginsenoside fraction obtained after purification and decolorization by D101 and D941 resins respectively, using the method described herein above. The content of Re and Rg1 in this ethanolic ginsenoside fraction was 4 mg/10 mL as determined by HPLC (see below). The molecular ratio between dexamethasone and Re/Rel in this solution was around 5:70. The ethanol fraction was slowly removed at 80° C. under reduced pressure (375 hPa) using a glass vials and a evaporator to obtain a film. […] The content and the presence of micelles were assessed by size exclusion chromatography as described below.
# [4] = test system: zebrafish larvae; assay: tail fin regeneration assay
# [5] = test system: neutrophils; assay: zebrafish tail fin wounding assay, neutrophil migration to wounded site; type: in vivo, zebrafish (Danio rerio)
# Description: as §1, §2, §3, §4, §5, §6
# [6] = test system: zebrafish larvae; assay: whole-body glucose measurement of zebrafish larvae; conditions: Example 3, ginsenoside Re
# [7] = test system: gr; assay: Gr transactivation activity in Tg(9xGCRE-HSV.UI23:EGFP)ia20 reporter larvae; type: in vivo, zebrafish (Danio rerio); conditions: 24 h from 2 dpf; 10 μM GC, 50 μM Rg1 or combination
# Description: (§7) To investigate the Gr transactivation activity in zebrafish larvae, the Tg(9xGCRE-HSV.UI23:EGFP)^ia20 reporter line was used, which expresses enhanced green fluorescent protein (EGFP) under the control of a promoter containing an array of nine GREs. […] The integrated intensity of the EGFP signal in the larvae was determined using ImageJ software.
# as §7, with “Tg(9xGCRE-HSV.UI23:EGFP^ia20)” for “Tg(9xGCRE-HSV.UI23:EGFP)^ia20”
# [8] = rule of thumb, literature table; cited from earlier work
# [9] = size exclusion chromatography of micelles (Sephadex G50) with HPLC; type: physicochemical
# Description: The size and content of the micelles were determined by means of size exclusion chromatography. 1 mL of aqueous ginsenoside/dexamethasone solution was loaded on a Sephadex G50 size exclusion column (size 25×1 cm) and eluted under gravity with water. Blue dextran (MW=2.000.000 Da) and erythrosine (880 Da) were used as molecular weight markers. Fractions of 2.0 mL were collected. The fractions were dried and dissolved in 70% methanol and the ginsenoside content was analyzed by means of HPLC. HPLC conditions were: • HPLC equipment: HPLC/DAD Aligent 1200 series, a quaternary pump connected to a DAD and autosampler. • Stationary phase: Kinetex 2.6 μm, C18 100 Å, 100×4.6 mm-Phenomenex, USA • Mobile phase: • A: 0.03% o-phosphoric acid (H3PO4) in Ultrapure H2O • B: 0.03% o-phosphoric acid (H3PO4) in Acetonitrile (LiChrosolv, Millipore-Merck, Darmstadt, Germany; quality far UV) • Gradient:
# • Conditions • Flow: 0.8 ml/min • Injection volume: 20 μL • Column temperature: 35° C. • Detection wavelength: 203 and 241 nm
detection of free dexamethasone in fractions after 55 mL [9],Structure (SMILES),migration of macrophages [1],whole body cortisol [2],appearance of solution in ethanol ([3]; 100 mg in 10 mL of ethanol),"appearance of solution in H2O after dissolving the film ([3]; film from ethanol (or 60% EtOH) evaporation, dissolved in H2O)","micelle formation / crystallization in H2O ([3]; microscopic determination, 10 mL H2O)","regenerative tissue ([4]; Example 3, ginsenoside Re)","migration of neutrophils to the wounded tail area ([5]; Example 3, ginsenoside Re)",whole body glucose [6],"regeneration of amputated tail fin (length of regenerated tissue at 5 dpf) ([4]; 0-5 dpf, 10 μM beclomethasone or dexamethasone, 50 μM Rg1 or combinations, amputation at 2 dpf)",relative EGFP intensity (Gr transactivation) [7],neutrophil migration to the wounded site ([5]; 10 μM dexamethasone),dose equivalent to a 5 mg prednisone dose [8],co-elution of dexamethasone with micelles / encapsulation ([9]; Sephadex G50 fractions)
,"CC(C)=CCC[C@](C)(O[C@@H]1O[C@H](CO)[C@@H](O)[C@H](O)[C@H]1O)[C@H]1CC[C@]2(C)[C@@H]1[C@H](O)C[C@@H]1[C@@]3(C)CC[C@H](O)C(C)(C)[C@@H]3[C@@H](O[C@@H]3O[C@H](CO)[C@@H](O)[C@H](O)[C@H]3O[C@@H]3O[C@@H](C)[C@H](O)[C@@H](O)[C@H]3O)C[C@]12C [Re, (3β, 6α, 12β)-20-(β-D-Glucopyranosyloxy)-3, 12-dihydroxydammar-24-en-6-yl 2-O-(6-deoxy-α-L-mannopyranosyl)-β-D-glucopyranoside]",did not inhibit the migration of macrophages,no side effects could be observed,clear solution,cloudy solution,crystallization of Re (FIG. 12B) and no micelles were obtained,did not affect regenerative tissue,inhibited the migration of neutrophils to the wounded tail area,no side effects could be observed,,,,,
could not be detected in these fractions,"C[C@@H]1C[C@H]2[C@@H]3CCC4=CC(=O)C=C[C@]4(C)[C@@]3(F)[C@@H](O)C[C@]2(C)[C@@]1(O)C(=O)CO [dexamethasone, reference compound]",,,,,,,,,dexamethasone-induced inhibition of the regenerative process,significantly increased the relative EGFP intensity,did not affect neutrophil migration,about 0.75 mg,co-eluted with the Re and Rg1 containing micelles
